Measurements as given in patent US11389415B2, “Methods of regulating cannabinoid receptor activity-related disorders and diseases” (The United States of America as represented by the …, priority 2012, dated 2022).

Experiments:
[1] = system: CAPAN; assay: tumor cell growth, CAPAN; details: read-out: IC50 (uM), CAPAN (Pancreatic C)
[2] = In vitro metabolic stability, human liver microsomes; type: in vitro ADME; details: 37° C.
Method: (§1) FIG. 10 presents the data from the in vitro metabolic stability study in which MNF was incubated (in duplicate) with active and heat-inactivated human (HLM) and rat (RLM) liver microsomes and cofactors at 37° C. Aliquots were removed at 0, 15, 30 and 60 minutes and the amount of test compound (MNF) remaining at each time point was determined by LC-MS/MS.

[3] = In vitro metabolic stability, rat liver microsomes; type: in vitro ADME; details: rat liver microsomes and cofactors, 37° C., 0-60 minutes
Method: as §1

[4] = biological target: T1, CYP3A4 (Homo sapiens, UniProt P08684); assay: CYP inhibition in human liver microsomes, CYP3A4; type: in vitro ADME; details: 10 μM, 20 minutes, 37° C.
T1 construct: from tissue; host or cells: human liver microsomes
Method: Incubations containing known CYP inhibitors were also included as positive controls. Formation of the model substrate metabolites was measured by LC-MS/MS and compared to control incubations (incubation of substrates with microsomes and cofactors, no test articles or inhibitors). CYP activity in presence of test compound (MNF) that was less than 70% of control was considered significant. MNF (10 μM) inhibited CYP2D6 and CYP3A4 to less than 70% of the control. Further, the primary metabolite was determined to be O-demethylated-MNF. These studies indicate that MNF alters the metabolism of other drugs or endogenous compounds that are substrates for CYP2D6 and/or CYP3A4 isoforms, when present in the plasma or liver at 10 μM or higher.

[5] = MNF accumulation in vivo in C6 glioma tumors; parameters: species or system mouse; details: C6 xenograft tumors at completion of study
Method: Evaluation of MNF accumulation in vivo in C6 glioma tumors. The accumulation of MNF in vivo in C6 tumor xenografts in athymic mice was assessed in comparison with vehicle-treated tumor-bearing animals. The frozen tumor samples were thawed, and then homogenized. The concentration of MNF and its metabolites was determined by HPLC followed by LC-MS/MS. In brief, the assays were conducted using an Eclipse XDB-C18 guard column (4.6 mm×12.5 mm) and an Atlantis HILIC column (150×2.1 mm ID, […]). The mobile phase consisted of water containing 0.1% formic acid as component A and acetonitrile as component B. A linear gradient was run as follows: 0 minutes 95% B; 5 minutes 60% B; 6 minutes 80% B; 10 minutes 95% B at a flow rate of 1.0 ml/minute. The total run time was 15 minutes per sample. Identification and quantification of the analytes was accomplished using an API-4000 LC-MS/MS in positive electrospray ionization mode and data was acquired employing multiple reaction monitoring (MRM) and the following MRM transitions: MNF (369-200); MNF-Gluc (545-200). Tumor tissues from vehicle-injected mice were used as controls.

[6] = system: Sox4, Olig1, Galnt3, Cdkn3, Ccna2, Bub1b mRNA; assay: qRT-PCR of selected genes in C6 xenograft tumors; type: in vivo, mouse; details: MNF-treated mice
Method: Total RNA extraction, cDNA synthesis and qRT-PCR analysis. Total RNA (including the DNase treatment step) was isolated from frozen tumor tissues using the RNeasy mini kit (Qiagen, Valencia, Calif.). RNA concentration and quality was measured using the NanoDrop spectrophotometer (NanoDrop Technologies, Wilmington, Del.). Subsequently, 2 μg total RNA was reverse-transcribed to cDNA using the qSCRIPT™ cDNA SuperMix (Quanta Biosciences, Gaithersburg, Md.). Quantitative real-time PCR (qRT-PCR) reactions were performed to validate the expression of 6 genes that were selected from the microarray analysis. The reactions were carried out with SYBR® Green PCR master mix on an ABI Prism 7300 sequence detection system (Applied Biosystems) using commercially available target probes for Sox4, Olig1, Galnt3, Cdkn3, Ccna2, and Bub1b (PrimeTime qPCR Assays and Primers, IDT DNA Technologies, Coralville, Iowa). The data was analyzed using the 2-ΔΔCt method with Gapdh and vehicle-treated tumors as internal controls. Controls consisting of reaction mixture without cDNA were negative in all runs.

[7] = system: PANC-1 cells; assay: Scratch wound-healing assay, PANC-1 cells; type: cell-based, human; details: PANC-1, 1 μM
Method: Scratch assays. These assays were carried out essentially as described previously (Fiori et al., Endocrinology 150: 2551-2560, 2009). In brief, cells were seeded in 12-well nontreated polystyrene cell culture plates with flat bottom (Greiner Bio-One, Monroe, N.C.). Once the cells became confluent, a scratch wound was made with a pipette tip and pictured immediately (time 0). […] Cell migration was examined at 12, 24, 36, 48 hours and 12, 18, 24, 48 hours after scratch for the HepG2 and PANC-1 cells, respectively. Images of the same field were taken every 3 hours to determine the rate of cell migration. Images were captured on an Axiovert 200 inverted microscope (Carl Zeiss, Thornwood, N.Y.) mounted with an AxioCam HRc digital camera (Carl Zeiss) and the measurement of scratch area was performed with ImageJ 1.46s software (National Institutes of Health, Bethesda, Md.). Each study was performed in duplicate dishes and repeated at least twice.

T1 sequence (P08684 whole entry): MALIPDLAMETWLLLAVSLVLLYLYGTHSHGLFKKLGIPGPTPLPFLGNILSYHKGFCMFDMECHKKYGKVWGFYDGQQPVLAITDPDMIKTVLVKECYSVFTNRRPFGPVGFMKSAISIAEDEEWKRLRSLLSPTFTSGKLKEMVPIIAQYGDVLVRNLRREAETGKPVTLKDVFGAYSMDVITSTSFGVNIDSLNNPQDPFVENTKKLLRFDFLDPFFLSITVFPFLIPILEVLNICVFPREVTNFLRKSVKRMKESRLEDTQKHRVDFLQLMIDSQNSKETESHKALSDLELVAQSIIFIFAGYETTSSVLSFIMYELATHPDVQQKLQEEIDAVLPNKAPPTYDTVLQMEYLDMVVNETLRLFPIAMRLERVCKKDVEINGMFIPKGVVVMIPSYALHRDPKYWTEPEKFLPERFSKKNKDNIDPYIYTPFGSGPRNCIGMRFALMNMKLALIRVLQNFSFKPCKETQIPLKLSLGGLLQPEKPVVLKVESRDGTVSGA

Row | SMILES | IC50 [1] | stability under the incubation conditions ([2]; heat-inactivated microsome controls) | metabolic stability, MNF levels ([2]; human liver microsomes and cofactors, 0-60 minutes) | metabolic stability, MNF levels [3] | CYP3A4 activity in presence of test compound [4] | tissue concentration of MNF in tumor ([5]; cohort 1, n=9) | tissue concentration of MNF in tumor ([5]; cohort 2, n=7) | mRNA expression by quantitative RT-PCR compared to control [6] | cell motility, compound alone [7] | effect on AM251-induced motility ([7]; AM251 1 μM) | effect on wound closure evoked by O-1602 ([7]; O-1602 1 μM)
1 | COc1cccc2c1C(=O)c1c(O)c3c(c(O)c1C2=O)C[C@@](O)(C(=O)CO)C[C@@H]3O[C@H]1C[C@H](N)[C@H](O)[C@H](C)O1 [Doxorubicin, reference compound] | 0.23 µM | – | – | – | – | – | – | – | – | – | –
2 | COc1ccc(C[C@@H](C)NC[C@H](O)c2cc(O)cc(O)c2)c2ccccc12 [(R,R′)-MNF, (R,R′)-4′-methoxy-1-naphthylfenoterol] | – | somewhat unstable under the incubation conditions | greater decrease in MNF levels | greater decrease in MNF levels | less than 70 % of the control | 141.0±52.5 ng/ml/g tissue | 214.4±65.5 ng/ml/g tissue | decreased the expression of Bub1b, Cdkn3 Ccna2, Olig1, Sox4, and Galnt3 | did not alter the constitutive rate of gap filling | produced significant decrease in AM251-induced motility of PANC-1 cells | inhibit the wound closure evoked by O-1602 in PANC-1 cells
